According to ChEMBL document CHEMBL6087451, “Design, Synthesis, and Biological Evaluation of 2-Arylaminopyrimidine Derivatives as Dual Cathepsin L and JAK Inhibitors for the Treatment of Acute Lung Injury” (J Med Chem, 2025):
Calls of active or inactive are those of the source. No cut-off for these calls is given here.

Columns and labels:
[1] = AUC (0 to t) in Sprague-Dawley rat at 3.5 mg/kg, iv measured for 24 hrs by LC-MS/MS analysis; assay type: ADME, organism-based; conditions: in vivo
Mus musculus [2] = test: (§1) Anti-inflammatory activity in C57BL/6 mouse model of LPS-induced acute lung injury assessed as decrease in alveolar hemorrhage in lung at 10 mg/kg, ip treated for 3 days followed by LPS treatment after 1 hr post-compound administration on fourth day measured after 18 hrs post-LPS treatment by H and E staining based analysis; assay type: functional, organism-based; conditions: time 91.0 hrs
Mus musculus [3] = test: (§2) Anti-inflammatory activity in C57BL/6 mouse model of LPS-induced acute lung injury assessed as decrease in wet to dry ratio in lung at 10 mg/kg, ip treated for 3 days followed by LPS treatment after 1 hr post-compound administration on fourth day measured after 18 hrs post-LPS treatment; assay type: functional, organism-based; conditions: time 91.0 hrs
cells [4] = conditions: Homo sapiens, HBE
[5] = AUC (0 to infinity) in Sprague-Dawley rat at 3.5 mg/kg, po measured for 24 hrs by LC-MS/MS analysis; assay type: ADME, organism-based; conditions: in vivo
[6] = molecular target: T1, Serine/threonine-protein kinase Chk1 (Homo sapiens) (UniProt O14757); test: Inhibition of CHK1 (unknown origin) at 1 uM by kinase profiling analysis relative to control
T1 sequence (whole entry): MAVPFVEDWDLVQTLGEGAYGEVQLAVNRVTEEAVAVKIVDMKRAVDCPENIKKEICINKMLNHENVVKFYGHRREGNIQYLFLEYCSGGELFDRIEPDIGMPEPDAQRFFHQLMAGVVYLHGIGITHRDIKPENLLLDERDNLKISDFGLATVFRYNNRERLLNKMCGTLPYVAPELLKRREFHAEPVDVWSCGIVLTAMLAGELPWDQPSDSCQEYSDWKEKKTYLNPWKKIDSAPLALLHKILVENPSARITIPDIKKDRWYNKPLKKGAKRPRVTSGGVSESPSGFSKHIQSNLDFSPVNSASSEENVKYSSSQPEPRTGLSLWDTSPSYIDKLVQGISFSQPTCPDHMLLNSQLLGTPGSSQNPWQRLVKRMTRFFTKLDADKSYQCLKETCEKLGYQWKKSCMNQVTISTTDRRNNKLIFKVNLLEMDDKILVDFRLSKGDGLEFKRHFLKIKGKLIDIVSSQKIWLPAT

Procathepsin L = Procathepsin L (Homo sapiens, UniProt P07711); test: Inhibition of recombinant human Cat L using f Z-Phe-Arg-AMC as substrate preincubated for 30 mins followed by substrate addition
Procathepsin L, sequence (P07711 whole entry): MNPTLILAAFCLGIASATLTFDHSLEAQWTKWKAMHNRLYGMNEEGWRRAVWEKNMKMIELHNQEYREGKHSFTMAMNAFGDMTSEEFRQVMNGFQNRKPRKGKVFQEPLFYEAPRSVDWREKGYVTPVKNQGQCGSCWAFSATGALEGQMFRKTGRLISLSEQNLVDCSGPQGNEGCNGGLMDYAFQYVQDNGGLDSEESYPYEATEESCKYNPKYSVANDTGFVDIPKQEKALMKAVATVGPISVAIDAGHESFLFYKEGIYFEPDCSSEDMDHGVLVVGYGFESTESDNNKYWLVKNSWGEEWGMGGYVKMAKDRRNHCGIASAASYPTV

Mus musculus [7] = test: as §2, with “decrease in IL-6 mRNA level in lung” for “decrease in wet to dry ratio in lung”, “post-LPS treatment by RT-qPCR analysis” for “post-LPS treatment”; assay type: functional, organism-based; conditions: time 91.0 hrs
cells [8] = conditions: Homo sapiens, HBE; remark: listed apart in the source
HBE [9] = test: Anti-inflammatory activity against HBE cells assessed as inhibition of LPS-induced IL-6 level pretreated for 30 mins followed by LPS treatment for 24 hrs by ELISA; conditions: Homo sapiens, dose <= 5.0 µM, time 24.5 hrs
RAW264.7 [10] = test: Anti-inflammatory activity against mouse RAW264.7 cells assessed as inhibition of LPS-induced TNF-alpha mRNA level at 50 to 500 nM by RT-qPCR analysis; assay type: functional, cell-based; conditions: dose 50-500 nM
Mus musculus [11] = test: as §1, with “inflammatory cell infiltration” for “alveolar hemorrhage”; assay type: functional, organism-based; conditions: time 91.0 hrs
Mus musculus [12] = test: as §1, with “disruption of endothelial cell structures” for “alveolar hemorrhage”; assay type: functional, organism-based; conditions: time 91.0 hrs
[13] = molecular target: T2, Tyrosine-protein kinase JAK3 (Homo sapiens, UniProt P52333); test: Inhibition of JAK3 (unknown origin) using TK-biotin as substrate incubated for 30 mins in presence of ATP by HTRF assay
T2 sequence (P52333 whole entry): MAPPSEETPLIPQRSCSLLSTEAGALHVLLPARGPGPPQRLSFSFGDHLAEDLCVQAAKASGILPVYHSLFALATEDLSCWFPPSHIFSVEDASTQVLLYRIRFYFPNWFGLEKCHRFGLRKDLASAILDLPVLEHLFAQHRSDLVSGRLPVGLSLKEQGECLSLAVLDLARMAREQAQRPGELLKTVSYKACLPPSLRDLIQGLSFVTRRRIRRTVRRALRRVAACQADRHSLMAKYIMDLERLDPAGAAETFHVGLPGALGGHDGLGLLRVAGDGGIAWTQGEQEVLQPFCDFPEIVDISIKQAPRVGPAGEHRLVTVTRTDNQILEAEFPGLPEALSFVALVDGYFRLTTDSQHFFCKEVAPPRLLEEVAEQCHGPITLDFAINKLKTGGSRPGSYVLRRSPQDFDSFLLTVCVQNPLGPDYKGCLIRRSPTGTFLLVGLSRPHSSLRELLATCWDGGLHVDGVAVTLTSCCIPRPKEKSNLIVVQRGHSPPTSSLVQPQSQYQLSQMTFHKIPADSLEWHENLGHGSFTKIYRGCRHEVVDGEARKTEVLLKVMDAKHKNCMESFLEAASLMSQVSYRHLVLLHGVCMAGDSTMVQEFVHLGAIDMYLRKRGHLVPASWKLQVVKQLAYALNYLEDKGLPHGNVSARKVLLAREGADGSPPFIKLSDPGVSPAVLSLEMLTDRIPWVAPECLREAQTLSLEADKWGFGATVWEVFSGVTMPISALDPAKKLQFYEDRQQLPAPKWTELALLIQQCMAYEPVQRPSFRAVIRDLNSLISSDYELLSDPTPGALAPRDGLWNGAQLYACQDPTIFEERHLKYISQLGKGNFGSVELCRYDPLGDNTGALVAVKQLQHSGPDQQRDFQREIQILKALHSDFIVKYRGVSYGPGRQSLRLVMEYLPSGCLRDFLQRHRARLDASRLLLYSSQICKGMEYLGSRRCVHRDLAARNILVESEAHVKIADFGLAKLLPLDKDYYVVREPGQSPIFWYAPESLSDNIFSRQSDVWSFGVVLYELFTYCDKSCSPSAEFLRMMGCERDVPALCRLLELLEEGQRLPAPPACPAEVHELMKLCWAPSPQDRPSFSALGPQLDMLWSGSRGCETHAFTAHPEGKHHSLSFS

[14] = AUC (0 to infinity) in Sprague-Dawley rat at 3.5 mg/kg, iv measured for 24 hrs by LC-MS/MS analysis; assay type: ADME, organism-based; conditions: in vivo
HBE [15] = test: Anti-inflammatory activity against HBE cells assessed as inhibition of LPS-induced IL-8 level pretreated for 30 mins followed by LPS treatment for 24 hrs by ELISA; conditions: Homo sapiens, dose <= 5.0 µM, time 24.5 hrs
[16] = Half life in Sprague-Dawley rat at 3.5 mg/kg, po measured for 24 hrs by LC-MS/MS analysis; assay type: ADME, organism-based; conditions: in vivo
[17] = AUC (0 to infinity) in Sprague-Dawley rat at 3.5 mg/kg, ip measured for 24 hrs by LC-MS/MS analysis; assay type: ADME, organism-based; conditions: in vivo
RAW264.7 [18] = test: Anti-inflammatory activity against mouse RAW264.7 cells assessed as inhibition of LPS-induced IL-1beta level

AUC(0-t) at 24 h [1]: 633 ng·h/mL
IC50 (cells [4]): 614 nM
AUC(0-inf) [5]: 159 ng·h/mL
inhibition [6]: 81.7%
IC50 (Procathepsin L): 690 nM
IC50 (cells [8]): 1350 nM
IC50 [13]: 27.3 nM
AUC(0-inf) [14]: 680 ng·h/mL
half-life [16]: 3.21 h
AUC(0-inf) [17]: 416 ng·h/mL
IC50 (RAW264.7 [18]): 91.2 nM
Compound: Cl.Cn1cc(-c2ccnc(Nc3cccc(N)c3)n2)c2ccccc21
Activity (Mus musculus [2]): Active
Activity (Mus musculus [3]): Active
Activity (Mus musculus [7]): Active
inhibition (HBE [9]): Dose-dependent-effect
inhibition (RAW264.7 [10]): Active
Activity (Mus musculus [11]): Active
Activity (Mus musculus [12]): Active
inhibition (HBE [15]): Dose-dependent-effect
